Laboratory results published in US8486962B2, “Antifungal agents” (F2G Ltd., priority 2005, dated 2013).
In brackets after ≈: the same amount, converted by molar mass. Where two headings read alike, the source gives them in different places.

How the values were obtained:
Aspergillus flavus = assay: MIC, YAG medium, Aspergillus flavus; type: cell-based; conditions: for MIC: Aspergillus flavus
How it was run: (§1)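 Yeast: RPMI + 2% glucose + 0.135M MOPS pH7.0, 1-2×10^3 cfu/ml, 35° C 24-48 h, OD485, MIC at >80% inhib. Aspergillus: YAG (1% glucose, 1% NH4Cl, 0.5% yeast extract), spores 1-2×10^4 cfu/ml, 35° C 24 h, MIC at >70% inhib. Range 50-0.05 mg/L.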

[1] = test system: Aspergillus fumigatus AF293; assay: MIC, YAG medium, Aspergillus fumigatus AF293; type: cell-based; conditions: for MIC: Aspergillus fumigatus
How it was run: as §1

Aspergillus niger = assay: MIC, YAG medium, Aspergillus niger; type: cell-based; conditions: for MIC: Aspergillus niger
How it was run: as §1

Aspergillus terreus = assay: MIC, YAG medium, Aspergillus terreus; type: cell-based; conditions: for MIC: Aspergillus terreus
How it was run: as §1

[2] = test system: Aspergillus fumigatus AF210; assay: MIC, YAG medium, Aspergillus fumigatus AF210; type: cell-based; conditions: for MIC: Aspergillus fumigatus
How it was run: as §1

A Terreus 49 = assay: MIC, YAG medium, A Terreus 49; type: cell-based, Aspergillus terreus; conditions: for MIC: Aspergillus terreus, read-out: MIC A Terreus 49
Experimental: Measurement of Minimum Inhibitory Concentrations (MICs)
Between 1 and 5 mgs of compound were accurately weighed out into a sterile Eppendorf tube. The compound was dissolved in DMSO to give a solution containing 5 mg/ml. Tubes were stored at −20° C. until required.
On the day of testing thawed solutions were vortex mixed to ensure homogeneity. 30 μl of solution was removed and added to 570 μl of sterile water in a separate sterile Eppendorf. The thoroughly mixed solution was used to prepare a series of doubling dilutions in water, in a deep well plate. Eleven replicate plates were prepared using a Minitrak by aspirating 20 μl from each well into eleven clear polystyrene 96 well plates.
Spores of Aspergillus spp (Aspergillus fumigatus, Aspergillus terreus, Aspergillus niger and Aspergillus flavus) were harvested from cultures grown on Sabarauds agar for 5 days, and resuspended in PBS/Tween 80 to approx 1×10^7 cfu/ml Other filamentous fungi (Fusarium solani, Scedosporium spp., Trichophyton spp., Absidia corymbifera), were grown on Sabarauds agar for 2-10 days and spores/hyphae resuspended in PBS/Tween to give approx 1×10^7 cfU/ml. Candida species (Candida albicans, Candida glabrata, Candida krusei, Candida parapsilosis and Candida tropicalis) were grown on Sabarauds agar, cells were harvested from the agar using a sterile loop and resuspended in PBS/Tween 80 to approx 1×10^6 cfu/ml. Each organism suspension was diluted in RPMI medium, containing 2% glucose and 0.135M MOPS buffer (pH7.0) to 2×10^4 cfu/ml for Aspergillus spp and other filamentous fungi and 2×10^3 cfu/ml for yeast. 80 μl of an organism suspension was added to each well of the plate containing drug dilutions.
This produced MIC plates with a drug range 50-0.05 mg/L and organism inocula of 1-2×10^4 cfu/ml for Aspergillus spp and other filamentous fungi and 1-2×10^3 cfu/ml for yeasts. All plates were incubated for 24-48 hrs at 35° C. Growth was assessed by monitoring the optical density at 485 nm for each well. The MIC of a compound is the lowest drug concentration that inhibits growth of an organism by >80% compared with a drug free control. MICs are recorded as mg/L. Other growth media can be used for susceptibility testing, and the activity of the described compounds can also be assessed in a medium comprising, 1% glucose, 1% ammonium chloride and 0.5% yeast extract (YAG medium). To perform MIC tests in this medium, dilutions of compounds are prepared in microtitre plates as described above. Fungal strains to be tested are grown and harvested in an identical manner to that described above, each organism suspension is then diluted in YAG medium to 2×10^4 cfu/ml for Aspergillus spp and other filamentous fungi and 2×10^3 cfu/ml for yeast. 80 μl of an organism suspension was added to each well of the plate containing drug dilutions. This produced MIC plates with a drug range 50-0.05 mg/L and organism inocula of 1-2×10^4 cfu/ml for Aspergillus spp and other filamentous fungi and 1-2×10^3 cfu/ml for yeasts. All plates were incubated for 24 hrs at 35° C. Growth was assessed by monitoring the optical density at 485 nm for each well. The MIC of a compound is the lowest drug concentration that inhibits growth of an organism by >70% compared with a drug free control. MICs are recorded as mg/L. In cases where the MIC of an organism is […]0.05 mg/L the MIC is repeated using a concentration range of 0.5-0.0005 mg/L. MIC tests in YAG medium have more clear-cut endpoints and have slightly lower MICS than those performed in RPMI medium.
The following organisms were tested: Aspergillus fumigatus AF293 and Aspergillus fumigatus AF210, Aspergillus niger, Aspergillus terreus, Aspergillus favus, Candida albicans, Candida krusei, Candida tropicalis, Candida glabrata, Candida parapsilosis, Trichophyton rubrum, Trichophyton mentagrophytes, Scedosporium prolificans, Scedosporium apiospermum, Absidia corymbifera, Fusarium solani.

[3] = AF293, YAG medium, read-out: MIC A Fum. 293
[4] = AF210, YAG medium, read-out: MIC A Fum. 210
[5] = YAG medium, read-out: MIC A Flavus 01
[6] = YAG medium, read-out: MIC A Niger 1
[7] = YAG medium, read-out: MIC A Terreus 4

Row | Compound | MIC [1, 3] [µg/mL] | MIC [2, 4] [µg/mL] | MIC (A Terreus 49; YAG medium) [µg/mL] | MIC (Aspergillus flavus; [5]) [µg/mL] | MIC (Aspergillus niger; [6]) [µg/mL] | MIC (Aspergillus terreus; [7]) [µg/mL] | other results
1 | O=C(Nc1ccc(C(F)(F)F)cc1)C(=O)c1c(-c2ccccc2)cc2ccccn12 [Example 304, 2-Oxo-2-(2-phenyl-indolizin-3-yl)-N-(4-trifluoromethyl-phenyl)-acetamide] | 0.25 (≈ 0.612 µM) | 0.25 (≈ 0.612 µM) | 0.015 (≈ 0.0367 µM) |  |  |  | MIC (Aspergillus flavus; YAG medium, read-out: MIC A Flavus): 0.031 µg/mL (≈ 0.0759 µM); MIC (Aspergillus niger; YAG medium, read-out: MIC A Niger): 0.015 µg/mL (≈ 0.0367 µM); MIC (Aspergillus terreus; YAG medium, read-out: MIC A Terreus): 0.015 µg/mL (≈ 0.0367 µM)
2 | CCN(CC)C(=O)Oc1cccc(NC(=O)C(=O)c2c(-c3ccccc3)cc3ccccn23)c1 [Example 266, Diethyl-carbamic acid 3-[2-oxo-2-(2-phenyl-indolizin-3-yl)-acetylamino]-phenyl ester] |  |  |  |  |  |  | MIC (Aspergillus flavus; read-out: MIC A Flavus 01): 0.2 µg/mL (≈ 0.439 µM); MIC ([1]; AF293, read-out: MIC A Fum. 293): 0.8 µg/mL (≈ 1.76 µM); MIC (Aspergillus niger; read-out: MIC A Niger 1): 6.25 µg/mL (≈ 13.7 µM); MIC (Aspergillus terreus; read-out: MIC A Terreus 4): 0.2 µg/mL (≈ 0.439 µM); MIC ([2]; AF210, read-out: MIC A Fum. 210): 1.6 µg/mL (≈ 3.51 µM); MIC (A Terreus 49): 0.2 µg/mL (≈ 0.439 µM)
3 | CN1CCN(c2ccc(NC(=O)C(=O)c3c(-c4ccccc4)cc4ccccn34)cc2)CC1 [Example 262, N-[4-(4-Methyl-piperazin-1-yl)-phenyl]-2-oxo-2-(2-phenyl-indolizin-3-yl)-acetamide] | 1.6 (≈ 3.65 µM) | 1.6 (≈ 3.65 µM) | 1.6 (≈ 3.65 µM) | 1.6 (≈ 3.65 µM) | 6.25 (≈ 14.3 µM) | 1.6 (≈ 3.65 µM) | 
4 | C[S+]1CCN(c2ccc(NC(=O)C(=O)c3c(-c4ccccc4)cc4ccccn34)cc2)CC1.[I-] [Example 299, 1-Methyl-4-{4-[2-oxo-2-(2-phenyl-indolizin-3-yl)-acetylamino]-phenyl}-thiomorpholin-1-ium iodide] | 6.25 | 6.25 | 1.6 | 3.1 | 12.5 | 3.1 | 
5 | CC(=NO)c1ccc(NC(=O)C(=O)c2c(-c3ccccc3)cc3ccccn23)cc1 (mixture of isomers) [Example 250, N-(4-{1-[(E/Z)-Hydroxyimino]-ethyl}-phenyl)-2-oxo-2-(2-phenyl-indolizin-3-yl)-acetamide] |  |  |  |  |  |  | MIC A Flavus 01 (Aspergillus flavus; YAG medium): 0.1 µg/mL; MIC A Fum. 293 ([1]; YAG medium): 0.2 µg/mL; MIC A Niger 1 (Aspergillus niger; YAG medium): 0.05 µg/mL; MIC A Terreus 4 (Aspergillus terreus; YAG medium): 0.1 µg/mL; MIC A Fum. 210 ([2]; YAG medium): 0.8 µg/mL; MIC A Terreus 49 (A Terreus 49; YAG medium): 0.05 µg/mL
6 | CS(=O)(=O)c1ccc(NC(=O)C(=O)c2c(-c3ccccc3)cc3ccccn23)cc1 [Example 257, N-(4-Methanesulfonyl-phenyl)-2-oxo-2-(2-phenyl-indolizin-3-yl)-acetamide] | 6.25 (≈ 14.9 µM) | 3.1 (≈ 7.41 µM) | 0.4 (≈ 0.956 µM) | 0.4 (≈ 0.956 µM) | 0.8 (≈ 1.91 µM) | 0.4 (≈ 0.956 µM) | 
7 | Cc1cccc(NC(=O)C(=O)c2c(-c3ccccc3)cc3ccccn23)c1 [Example 206, 2-Oxo-2-(2-phenyl-indolizin-3-yl)-N-m-tolyl-acetamide] | 0.062 (≈ 0.175 µM) | 0.062 (≈ 0.175 µM) | 0.008 (≈ 0.0226 µM) | 0.008 (≈ 0.0226 µM) | 0.015 (≈ 0.0423 µM) | 0.004 (≈ 0.0113 µM) | 
8 | COc1ccc(NC(=O)C(=NOCCCN(C)C)c2c(-c3ccccc3)cc3ccccn23)cc1 (mixture of isomers) [Example 296, 2-[(E/Z)-3-Dimethylamino-propoxyimino]-N-(4-methoxy-phenyl)-2-(2-phenyl-indolizin-3-yl)-acetamide] |  |  |  |  |  |  | MIC A Flavus 01 (Aspergillus flavus; YAG medium): 12.5 µg/mL; MIC A Fum. 293 ([1]; YAG medium): >50 µg/mL; MIC A Niger 1 (Aspergillus niger; YAG medium): 25 µg/mL; MIC A Terreus 4 (Aspergillus terreus; YAG medium): 6.25 µg/mL; MIC A Fum. 210 ([2]; YAG medium): >50 µg/mL; MIC A Terreus 49 (A Terreus 49; YAG medium): 6.25 µg/mL
9 | Cc1ccc(NC(=O)C(=O)c2c(-c3cccnc3)cc3ccccn23)cc1 [Example 173, 2-Oxo-2-(2-pyridin-3-yl-indolizin-3-yl)-N-p-tolyl-acetamide] | 0.5 (≈ 1.41 µM) | 0.4 (≈ 1.13 µM) | 0.12 (≈ 0.338 µM) | 0.12 (≈ 0.338 µM) | 0.5 (≈ 1.41 µM) | 0.12 (≈ 0.338 µM) | 
10 | O=C(Nc1ccc(F)cc1F)C(=O)c1c(-c2ccccc2Cl)cc2ccccn12 [Example 277, 2-[2-(2-Chloro-phenyl)-indolizin-3-yl]-N-(2,4-difluoro-phenyl)-2-oxo-acetamide] | 0.4 (≈ 0.974 µM) | 0.05 (≈ 0.122 µM) | 0.2 (≈ 0.487 µM) | 0.03 (≈ 0.073 µM) | 0.03 (≈ 0.073 µM) | 0.015 (≈ 0.0365 µM) | 
11 | COc1ccc(NC(=O)C(=O)c2c(-c3ccccc3C)cc3ccccn23)cc1 [Example 232, N-(4-Methoxy-phenyl)-2-oxo-2-(2-o-tolyl-indolizin-3-yl)-acetamide] | 0.062 (≈ 0.161 µM) | 0.062 (≈ 0.161 µM) | 0.015 (≈ 0.039 µM) | 0.015 (≈ 0.039 µM) | 0.008 (≈ 0.0208 µM) | 0.031 (≈ 0.0806 µM) | 
12 | O=C(O)COc1cccc(NC(=O)C(=O)c2c(-c3ccccc3)cc3ccccn23)c1 [Example 294, {3-[2-Oxo-2-(2-phenyl-indolizin-3-yl)-acetylamino]-phenoxy}-acetic acid] | 25 (≈ 60.3 µM) | > 50 | 25 (≈ 60.3 µM) | 25 (≈ 60.3 µM) | 50 (≈ 121 µM) | 50 (≈ 121 µM) | 
13 | CCCN(CCC)c1ccc(NC(=O)C(=O)c2c(-c3ccccc3)cc3ccccn23)cn1 [Example 289, N-(6-Dipropylamino-pyridin-3-yl)-2-oxo-2-(2-phenyl-indolizin-3-yl)-acetamide] | 0.05 (≈ 0.113 µM) | 0.05 (≈ 0.113 µM) | 0.008 (≈ 0.0182 µM) | 0.004 (≈ 0.00908 µM) | 0.004 (≈ 0.00908 µM) | 0.008 (≈ 0.0182 µM) | 
14 | CC(C)(C#N)c1cccc(NC(=O)C(=O)c2c(-c3ccccc3)cc3ccccn23)c1 [Example 228, N-[3-(Cyano-dimethyl-methyl)-phenyl]-2-oxo-2-(2-phenyl-indolizin-3-yl)-acetamide] | 0.031 (≈ 0.0761 µM) | 0.031 (≈ 0.0761 µM) | 0.002 (≈ 0.00491 µM) | 0.004 (≈ 0.00982 µM) | 0.015 (≈ 0.0368 µM) | 0.004 (≈ 0.00982 µM) | 
